Experimental data reported in patent US6028083A, “Esters of (+)-α-(2,3-dimethoxyphenyl)-1-[2-(4-fluorophenyl) ethyl]-4-piperidinemethanol” (Hoechst Marion Roussel, Inc., priority 1997, dated 2000).

What was measured:
[1] = test system: 5HT2A receptor; experiment: Antagonism of DOI-induced behaviors in rats; format: in vivo, Male Sprague-Dawley rats; conditions: single i.m. injection in sesame oil, 120 mg/kg equivalent to MDL 100,907, DOI 3.0 mg/kg i.p.
Description: The compound of the present invention used in this test was (+)-α-(2,3-Dimethyoxyphenyl)-1-[2-(4-fluorophenyl)ethyl]-4-piperidinemethanol decanoate--Example 4 herein.-- The 5-HT2A/2C agonist (±)-DOI HCl (1-(2,5-dimethoxy-4-iodophenyl)-2-aminopropane hydrochloride) induces several quantifiable behaviors in rats. These behaviors include "shakes" (a quick head and body shake, a.k.a. wet dog shakes), "forepaw tapping" (rapid forepaw treading) and "skin-jerks" (paraspinal muscle contractions or dorsal skin-shrugging).
Male Sprague-Dawley rats (180±50 g) were housed seven per cage and allowed 1 week to acclimate to the vivarium. Food and water were freely available. The temperature and light cycle (12 h on-12 h off)were automatically maintained. Individual rats were tested once. Each testing group contained seven animals. Experiments took place in the vivarium room where the animals were housed.
Vehicle control animals were injected with sesame oil alone. (±)-DOI HCl (3.0 mg/kg, 1 mL/kg body weight) was dissolved in distilled water with the aid an ultrasonic bath, and injected intraperitoneally on appropriate testing days.
(+)-α-(2,3-Dimethyoxyphenyl)-1-[2-(4-fluorophenyl)ethyl]-4-piperidinementhanol decanoate-treated rats were tested for antagonism of DOI-induced behaviors 1, 5, 7, 14, 21, 28 and 40 days after the single (+)-α-(2,3-Dimethyoxyphenyl)-1-[2-(4-fluorophenyl)ethyl]-4-piperidinementhanol decanoate intramuscular injection. Each rat was tested once. Immediately after DOI injection rats were placed under inverted clear plastic boxes (28 L×25 W×25 H cm) which were arranged on top of clean absorbent paper. Rats were continuously watched by trained observers (blind to treatment) for 30 minutes for the occurrence of DOI-induced behaviors (shakes, skin-jerks and forepaw tapping bouts) and then returned to their home cages. Rats were later used for pharmacokinetic studies. The frequencies of DOI-induced behaviors were recorded and then summed to provide a single behavioral score for each animal.
The mean and standard error of the behavioral scores of each group was determined. […]

[2] = in vivo; design: species or system male Wistar rats; conditions: rat, im, 120 mg/kg
Procedure: Rats are anesthetized with a lethal i.p. dose of nembutal and blood collected at 3 and 6 hours, and various days post-dose (n=5 for each timepoint) in heparinized vacutainers. Blood samples are centrifuged for 30 minutes at 5 C and at approximately 2700 rpm. Plasma is removed and stored at -20° C. until assay. The plasma samples are analyzed by an appropriate HPLC method. Brains will also be collected at the above timepoints and stored at -80° C. until analyzed by the appropriate HPLC method.

[3] = Chronic Mild Stress Model of Depression (CMS), consumption of 1% sucrose solution; format: in vivo, Male Wistar rats
Description: CMS uses mild stressors, such as food and water deprivation, small temperature changes, changes of cage mates, etc. Over a period of weeks of exposure to the mild stressors, the animals gradually reduce their consumption of a highly preferred sucrose solution which persists (in untreated animals) for several weeks following the cessation of stress. This decreased sensitivity to reward (the sucrose solution) reflects anhedonia, a symptom of a Major Depressive Episode (see for example, Behavioral Pharmacol.5: Suppl. 1, p. 86 (1994) where lithium, carbamazepine and ketoconazole were evaluated in CMS; Psychopharmacology 93:358-364 (1987) where a tricyclic antidepressant was evaluated in CMS; Behavioral Pharmacology:5:344-350 (1994) where a catechol-O-methyl transferase inhibitor was evaluated in CMS).
Male Wistar rats were brought into the laboratory two months before the start of the experiment at which time they weighed approximately 300 grams. Except as described below, the animals were singly housed, with food a water freely available, and maintained on a 12 hour light/dark cycle (lights on at 8 AM) at a temperature of 22±° C.
The animals were first trained to consume a 1% sucrose solution; training consisted of eight 1 hour baseline tests in which sucrose was presented, in the home cage, following 14 hours food and water deprivation; intake was measured by weighing pre-weighed bottles containing the sucrose solution at the end of the test. Subsequently, sucrose consumption was monitored, under similar conditions, at weekly intervals throughout the whole experiment.
On the basis of their sucrose intakes in the final baseline test, the animals were divided into two matched groups. One group of animals was subjected to a chronic mild stress procedure for a period of 9 consecutive weeks. Each week of stress regime consisted of: two periods of food or water deprivation (12 and 14 hour), two periods of 45 degree cage tilt (12 and 14 h), two periods of intermittent overnight illumination (lights on and off every 2 hours), two 14 hour periods of soiled cage (200 ml water in sawdust bedding), two 14 hour periods of paired housing, two 14 hour periods of low intensity stroboscopic illumination (150 flashes/min). Stressors were applied continuously throughout the day and night, and scheduled randomly. […] They were deprived of food and water for the 14 hours preceding each sucrose test, but otherwise food and water were freely available in the home cage. […] All drug injections were in a volume of 1 ml/kg body weight. Drugs were administered at 10 AM and sucrose tests were carried out 24 hours following the last drug treatment. After five weeks, the treatments were terminated and after one week of withdrawal a final sucrose test was carried out. Stress was continued throughout the period of treatment and withdrawal.
Results were analyzed by multiple analysis of variance, followed by Fisher's LSD test for post hoc comparisons of means.

[4] = test system: dopamine efflux in the medial prefrontal cortex; conditions: European Journal of Pharmacology 273: 273-279 (1995); cited from earlier work
[5] = test system: myocardial tissue; conditions: no source or data given; cited from earlier work
[6] = test system: 5HT2A receptor; conditions: cited from earlier work
[7] = test system: PPI (prepulse inhibition); conditions: Psychopharmacology 124: 107-116 (1996); cited from earlier work
[8] = test system: platelets; conditions: U.S. Pat. No. 5,561,144, cited from earlier work
[9] = test system: 5HT2A receptor; conditions: literature (Pranzatelli 1990; Wettstein et al. 1996); cited from earlier work
[10] = imipramine 10 mg/kg ip daily, five weeks
[11] = MDL 100,907 0.002, 0.02 and 0.2 mg/kg orally
[12] = MDL 100,907 0.002, 0.02 and 0.2 mg/kg orally, NS
[13] = MDL 100,907 0.02 and 0.2 mg/kg orally

CCCCCCCCCC(=O)O[C@@H](c1cccc(OC)c1OC)C1CCN(CCc2ccc(F)cc2)CC1 [Example 4, (+)-α-(2,3-Dimethyoxyphenyl)-1-[2-(4-fluorophenyl)ethyl]-4-piperidinementhanol decanoate]
antagonism of DOI-induced behavior at day 40 [1]: no longer significant
duration of significant antagonism of DOI-induced behavior ([1]; p<=0.05): 28 days
antagonism of DOI-induced behavior ([1]; through day 28): Significantly antagonized DOI-induced behavior
concentration at 3 h [2]: 54.2 ± 13.3 ng/mL
concentration at 6 h [2]: 53.8 ± 17.1 ng/mL
concentration at 24 h [2]: 54.1 ± 18 ng/mL
concentration at 48 h [2]: 21.6 ± 7.39 ng/mL
concentration at 72 h [2]: 39 ± 5.64 ng/mL
concentration at 96 h [2]: 52 ± 12.9 ng/mL
concentration at 144 h [2]: 41.9 ± 14.6 ng/mL
concentration at 192 h [2]: 28.7 ± 9.16 ng/mL
concentration at 288 h [2]: 21 ± 12.8 ng/mL
concentration at 360 h [2]: 52.4 ± 15.2 ng/mL
concentration at 456 h [2]: 40.1 ± 8.44 ng/mL
concentration at 528 h [2]: 46.3 ± 9.31 ng/mL
concentration at 624 h [2]: 38.9 ± 9.35 ng/mL
concentration at 696 h [2]: 43.7 ± 10.8 ng/mL
concentration at 984 h [2]: 24.1 ± 9.15 ng/mL

CN(C)CCCN1c2ccccc2CCc2ccccc21 [Imipramine]
sucrose intake in stressed animals, F(1,84) ([3]; imipramine 10 mg/kg ip daily): 16.776
sucrose intake in stressed animals, p (treatment) ([3]; imipramine 10 mg/kg ip daily): < 0.001
sucrose intake of drug-treated stressed animals vs drug- and saline-treated controls ([3]; imipramine 10 mg/kg ip daily, after five weeks of treatment): no significant differences
effect on sucrose intake in control animals [3, 10]: no significant effect
effect on sucrose intake in stressed animals [3, 10]: gradual increase of sucrose intake
sucrose intake in stressed animals after withdrawal ([3]; imipramine 10 mg/kg ip daily, one week after withdrawal): maintained at similar level
sucrose intake in control animals, F(1,84) ([3]; imipramine 10 mg/kg ip daily, NS): 0.364

COc1cccc([C@H](O)C2CCN(CCc3ccc(F)cc3)CC2)c1OC [MDL 100,907, (+)-α-(2,3-dimethoxyphenyl)-1-[2-(4-fluorophenyl)ethyl]-4-piperidinemethanol]
influence on dopamine efflux in the medial prefrontal cortex [4]: tonic inhibitory influence on dopamine efflux
anti-arrhythmic class (Vaughan Williams) [5]: Class III anti-arrhythmic activity
effect on action potential of myocardial tissue [5]: increases the duration of the action potential of myocardial tissue
effect on sucrose intake throughout the whole treatment period ([3]; MDL 100,907 0.002 mg/kg orally): no significant effect
sucrose intake in stressed animals vs Week 0 ([3]; MDL 100,907 0.02 mg/kg (after two weeks) and 0.2 mg/kg (after three weeks) orally): significantly increased from initial scores
sucrose intake in stressed animals, Treatment effect F(3,168) [3, 11]: 22.567
sucrose intake in stressed animals, Treatment effect p [3, 11]: < 0.001
sucrose intake in stressed animals, Treatment x Weeks interaction F(15,158) [3, 11]: 1.559
sucrose intake in stressed animals, Treatment x Weeks interaction p [3, 11]: 0.05
effect on sucrose intake in control animals ([3]; MDL 100,907 0.002, 0.02 and 0.2 mg/kg orally daily, five weeks): no significant effect
sucrose intake in control animals, Treatment effect F(3,168) [3, 12]: 0.821
sucrose intake in control animals, Treatment x Weeks interaction F(15,168) [3, 12]: 0.499
sucrose intake of stressed animals vs vehicle-treated controls at Week 5 [3, 13]: comparable to that of vehicle-treated controls
sucrose intake of stressed animals vs vehicle-treated stressed animals at Week 5 [3, 13]: significantly higher than that of vehicle-treated stressed animals
sucrose intake one week after withdrawal ([3]; MDL 100,907 all doses, control and stressed animals): not significantly changed
effect on CMS-induced deficit in sucrose intake in stressed animals ([3]; MDL 100,907 orally daily, five weeks): gradually reversed the CMS-induced deficit in sucrose intake
5HT2A receptor antagonist potency [6]: potent 5HT2A receptor antagonist
effect on disrupted PPI [7]: restore disrupted PPI
effect on rate at which platelets aggregate [8]: decreases the rate at which platelets aggregate
prevention of acute thrombosis ([8]; especially of the coronary arteries): effective in the prevention of acute thrombosis

Cc1nc2sccn2c(=O)c1CCN1CCC(=C(c2ccc(F)cc2)c2ccc(F)cc2)CC1 [ritanserin]
block of the behavioral effects of DOI [9]: dose-dependently block the behavioral effects of DOI
